# According to patent US20230340491A1, “COMPOSITIONS AND METHODS FOR TREATING METABOLIC AND CARDIOVASCULAR DISEASES” (UNIVERSITY OF ROCHESTER, priority 2020, published 2023):
# Columns and labels:
# HFD-fed C57BL/6J mice = experiment: HFD-induced obesity and NAFLD in C57BL/6J mice treated with CRT0066101; format: in vivo, mouse; conditions: 10 mg/kg/day oral
# Source text: The mouse fat and liver tissues from the experimental mice were harvested after oral administration one and a half month.
# [1] = test system: C57BL/6NJ mice fed NASH diet; experiment: NASH diet-induced NASH in C57BL/6NJ mice treated with PKD3 inhibitor; format: in vivo, mouse
# Source text: The NASH diet D09100310, purchased from Research Diet, is a rodent diet with 40 kcal % Fat (mostly palm oil), 20 kcal % fructose and 2% cholesterol.
# Furtherly, to investigate the therapeutic potential of PKD3 inhibitor against NASH, we devised an experimental approach to model advanced NAFLD. […] To explore potential mechanisms by which PKD3 inhibitor treatment protect against diet-induced NASH. We applied RNA sequencing of livers collected at endpoint.
# [2] = 100 ug/10 g per day oral, 6 weeks
# [3] = 100 ug/10 g per day oral, vs vehicle
# Method for WD-fed ApoE-/- mice: To further test whether PKD3 inhibitor prevents NAFLD development, we first studied ApoE^−/− mice with Western diet (WD) induced HS, after 8 weeks on WD, we then treat the mice with PKD3 inhibitor by oral administration (low dose; 100 ug/10 g per day) on continue fed WD condition.
smiles,measurement,setting,value
CC[C@@H](N)CNc1ccnc(-c2cc(-c3cnn(C)c3)ccc2O)n1 [CRT0066101],body weight at end-point (FIG. 2C-2D),"HFD-fed C57BL/6J mice; one and a half month, vs vehicle",dramatically decreased
same,liver weight (FIG. 2F),HFD-fed C57BL/6J mice; vs vehicle,significantly reduced
same,running distance of physical exercise on treadmill (FIG. 2J),HFD-fed C57BL/6J mice; vs vehicle,increased
same,serum alanine-aminotransferase (ALT) (FIG. 2I),HFD-fed C57BL/6J mice; vs vehicle,decreased
same,serum aspartate aminotransferase (AST) (FIG. 2H),HFD-fed C57BL/6J mice; vs vehicle,decreased
same,size of adipocytes (FIG. 2K),HFD-fed C57BL/6J mice; vs vehicle,considerably diminished
same,weight of fat tissue (FIG. 2L-2N),HFD-fed C57BL/6J mice; vs vehicle,considerably diminished
same,liver histology (FIG. 2G),"HFD-fed C57BL/6J mice; vehicle mice had ballooning, hepatocyte death, severe fibrosis, fatty liver","almost normal liver morphology, little hepatic ballooning and fibrosis as well as lipid deposits"
same,fast blood glucose (FIG. 2R),HFD-fed C57BL/6J mice; HFD-fed mice,decreased
same,"glucose tolerance, OGTT (FIG. 2P)",HFD-fed C57BL/6J mice; HFD-fed mice,improved
same,"insulin sensitivity, ITT (FIG. 2O)",HFD-fed C57BL/6J mice; HFD-fed mice,improved
same,non-fast blood glucose (FIG. 2Q),HFD-fed C57BL/6J mice; HFD-fed mice,decreased
same,BAT size and weight (FIG. 5I-5K),[1]; [2],reduction
same,NAS (FIG. 5G),[1]; [2],significantly decreased
same,gFAT size and weight (FIG. 5I-5K),[1]; [2],reduction
same,hepatic fibrosis (FIG. 5G),[1]; [2],significantly decreased
same,hepatomegaly induced by NASH diet,[1]; [2],markedly attenuated
same,iFAT size and weight (FIG. 5I-5K),[1]; [2],reduction
same,liver fat (FIG. 5G),[1]; [2],significantly decreased
same,liver size (FIG. 5E-5F),[1]; [2],dramatically decreased
same,liver surface (FIG. 5E),[1]; [2],more smooth
same,liver weight (FIG. 5F),[1]; [2],dramatically decreased
same,nonfasting glucose (FIG. 5H),[1]; [2],most potent glucose-lowering effect
same,body weight at endpoint (FIG. 5C-5D),"[1]; 100 ug/10 g per day oral, 6 weeks, vs vehicle",reduced
same,body weight curve (FIG. 5B),"[1]; 12 weeks NASH diet, then 100 ug/10 g per day oral for 6 weeks on NASH diet, vs H2O",decreased
same,body fat (FIG. 3H-3K),WD-fed ApoE-/- mice; [3],radically reduced
same,body weight at end-point (FIG. 3B),WD-fed ApoE-/- mice; [3],decreased
same,liver weight (FIG. 3E),WD-fed ApoE-/- mice; [3],decreased
same,fibrosis score (FIG. 3F),"WD-fed ApoE-/- mice; H&E, Sirius Red, Oil Red O staining",alleviated
same,BAT (FIG. 3H-3K),WD-fed ApoE-/- mice; treat vs non-treat mice,no changes
same,GFAT (FIG. 3H-3K),WD-fed ApoE-/- mice; treat vs non-treat mice,no changes
same,"hyperlipidemia, serum (FIG. 3G)",WD-fed ApoE-/- mice; two months treatment,decreased
same,liver coloration (FIG. 3D),WD-fed ApoE-/- mice; yellowish coloration in vehicle mice,not any yellow color
